Tests used:
[1] = tested on: IRBP-reactive T cells (LN cells); experiment: LN cells from untreated EAU mice cultured with IRBP peptide in the presence of AICAR; type: cell-based
Description: To measure cell proliferation, LN cells were resuspended at 5×10^5 cells per 200 μl of medium in 96-well flat-bottom plates. Cells were incubated for 72 hours and proliferation during the last 12 hours was measured by using a bromodeoxyuridine (BrdU) cell proliferation assay kit (Millipore, Billerica, Mass.). Supernatant in the culture medium was collected at 48 hours and cytokine production in the supernatant was measured by ELISA using the Quantikine mouse IFN-γ, IL-4, IL-10 and IL-17 kits (R&D system, Minneapolis, Minn.).
To assess the effect of AICAR on already developed IRBP-specific T cells, LN cells from untreated EAU mice were cultured with IRBP peptide in the presence of AICAR (FIGS. 10A-10E). Specifically, LN cells were resuspended at 5×10^5 cells per 200 μl of medium in 96-well flat-bottom plates. Triplicate samples of cells were stimulated with or without IRBP at the indicated concentrations. AICAR was added at the indicated concentrations. Cell proliferation and cytokine production were measured as previously described in Example 10.

[2] = tested on: ICAM-1; experiment: ICAM-1 ELISA in aqueous humor, retina and serum of EIU rats; type: in vivo, Lewis rats; conditions: LPS + AICAR
Description: (§1) Male Lewis rats ranging from 6-8 weeks old (Charles River, Wilmington, Mass.) were used for these studies. To study the effects of AICAR pretreatment, AICAR and PBS (for placebo treatment) were delivered via intraperitoneal injection of AICAR (50 mg/kg or 100 mg/kg body weight; Sigma) diluted in 150 μl PBS or equal volume of PBS at 6 hours before and at the same time as LPS injection. Four experimental groups of rats were compared: (1) Normal: no treatment (2) AICAR: normal rats treated with AICAR 6 hours before examination; (3) LPS: EIU rats treated with PBS; (4) LPS+AICAR: EIU rats treated with AICAR. Two additional groups of rats were used to study the effects of AICAR (50 mg/kg) given either at the same time as LPS injection or at 6 hours after LPS injection. Under deep anesthesia, experimental rats were sacrificed and the retinas were carefully removed 24 hours after LPS injection, placed into 200 μl of lysis buffer and then sonicated. The lysate was centrifuged at 13,000 rpm for 10 minutes at 4° C. and supernatant was isolated. Three hours after LPS injection, blood samples were collected from the heart and subsequently centrifuged at 3000 rpm for 30 minutes at 4° C., and serum samples were separated. Cytokine and chemokine levels in the serum, aqueous humor, and retina were assessed using the rat CCL2/MCP-1 kit (Invitrogen, Camarillo, Calif.), the rat TNF-α kit (R&D system, Minneapolis, Minn.) and the rat ICAM-1 kit (R&D systems) by ELISA.

[3] = tested on: TNF-α, IL-6 and IFN-γ in the retina; experiment: Retinal cytokine mRNA (real-time PCR) and protein (ELISA) in EAU mice; type: in vivo, C57BL/6 (WT) mice
[4] = tested on: TNF-α; experiment: TNF-α ELISA in aqueous humor, retina and serum of EIU rats; type: in vivo, Lewis rats; conditions: LPS + AICAR
Description: as §1, with “Three hours after LPS injection, blood samples were collected from the heart and subsequently centrifuged at 3000 rpm for 30 minutes at 4° C., and serum samples were separated.” left out

[5] = tested on: splenic DCs; experiment: Splenic DC co-stimulatory molecule expression in EAU mice (FACS); type: in vivo; conditions: AICAR-treated vs non-treated EAU mice; twelve days after immunization
Description: To investigate whether DC maturation was affected by AICAR, splenic DCs were isolated from EAU mice and analyzed for co-stimulatory molecule expression. Specifically, spleen cells from 4 to 5 EAU mice were pooled at twelve days after immunization and incubated with the following monoclonal antibodies: anti-CD11c (N418), CD40 (3/23), CD80 (16-10A1), CD86 (GL-1), I-A^b (AF6-120.1) (Biolegend). Spleen cells were gated on the basis of forward and side scatter profile and propidium iodide or DAPI exclusion. Samples of 1×10^6 cells were analyzed by LSR (Becton Dickinson, Franklin Lakes, N.J.).

[6] = tested on: experimental autoimmune uveitis (EAU); experiment: Histological scoring of EAU (H&E sections); type: in vivo, C57BL/6 (WT) mice
[7] = tested on: CCL2/MCP-1; experiment: CCL2/MCP-1 ELISA in aqueous humor, retina and serum of EIU rats; type: in vivo, Lewis rats; conditions: LPS + AICAR
Description: as §1

[8] = tested on: WT BMDCs; experiment: LPS-stimulated BMDC maturation (FACS) and cytokine production (ELISA); type: cell-based, mice
Description: BMDCs were generated as previously described (Wang et al. (2005) IMMUNOL. LETT. 98:123-130). Briefly, bone marrow was flushed from the femurs and tibias of naive mice (6 to 8-week-old WT or AMPKα1 KO mice). The red blood cells were lysed using Red Blood Cell Lysing Buffer (Sigma). Approximately 2×10^6 cells were cultured in complete medium (RPMI 1640 medium containing 10% FBS, […], 10 mM HEPES [pH 7.4], 2 mM glutamine, 100 U/ml penicillin, and […]) including 10 ng/ml GM-CSF (Pepro Tech, London, England). Fresh media was added to the cells on day 4 of culture, and nonadherent cells and loosely adherent cells were collected as immature DCs on day 7. Immature DCs were stimulated with 100 ng/ml LPS (Salmonella typhimurium; Sigma) for 24 hours to obtain mature DCs. In some experiments, AICAR was added to the culture. […] After LPS stimulation for 24 hours, supernatant of the BMDC culture was collected and IL-6, TNF-α and IL12/23 p40 concentrations were measured (R&D system).

[9] = AICAR 200 mg/kg treated EAU mice vs control EAU mice
[10] = 100 ng/ml LPS 24 hours with AICAR, dose-dependent manner
[11] = LPS stimulation for 24 hours with AICAR, ELISA

NC(=O)c1ncn([C@@H]2O[C@H](CO)[C@@H](O)[C@H]2O)c1N [AICAR, 5-aminoimidazole-4-carboxamide-1-β-d-ribofuranoside]
IFN-γ production in vitro [1]: suppressed
IL-4 production in vitro [1]: not significantly induced
IL-10 production in vitro [1]: suppressed
IL-17 production in vitro [1]: suppressed
T cell proliferation in vitro [1]: suppressed
ICAM-1 in serum ([2]; 3 hours after LPS, n=11, LPS 28.7 ± 8.1): 21.6 ± 5.0 ng/mL
ICAM-1 in aqueous humor ([2]; 24 h after LPS, n=12, LPS 8.7 ± 4.4): 4.4 ± 3.3 ng/mL
ICAM-1 in retina ([2]; 24 h after LPS, n=14, LPS 316.4 ± 132.3): 202.9 ± 113.4 pg/total retinal protein
IFN-γ mRNA in retina [3, 9]: significantly reduced
IL-6 mRNA in retina [3, 9]: significantly reduced
TNF-α mRNA in retina [3, 9]: significantly reduced
IL-6 protein level in retina ([3]; AICAR 200 mg/kg treated EAU mice, 21 days after immunization, ELISA): suppressed
TNF-α in serum ([4]; 3 hours after LPS, n=11, LPS 147.2 ± 337.1, p 0.475): 57.8 ± 143.1 pg/mL
TNF-α in aqueous humor ([4]; 24 h after LPS, n=12, LPS 277.8 ± 123.9): 92.5 ± 140.5 pg/mL
CD40, CD80, CD86 and I-A^b expression on splenic DCs [5]: no difference
EAU mean pathologic score ([6]; AICAR 200 mg/kg i.p. daily day 0 to 21, day 21, scale 0-4, control 1.65±0.68): 0.53±0.73
EAU mean pathologic score, effector phase treatment ([6]; AICAR administered from day 8 to 21 after immunization, n=8, controls 1.03±0.75): 0.13±0.27
MCP-1 in serum ([7]; 3 hours after LPS, n=11, LPS 6.8 ± 0.5): 0.4 ± 0.2 ng/mL
MCP-1 in aqueous humor ([7]; 24 h after LPS, n=12, LPS 4.4 ± 3.9): 0.8 ± 1.0 ng/mL
MCP-1 in retina ([7]; 24 h after LPS, n=14, LPS 18.7 ± 11.3): 8.8 ± 2.9 pg/total retinal protein
CD40 expression on BMDCs [8, 10]: significantly suppressed
CD80 expression on BMDCs [8, 10]: significantly suppressed
CD86 expression on BMDCs [8, 10]: significantly suppressed
I-A^b expression on BMDCs [8, 10]: significantly suppressed
IL-6 production in BMDCs [8, 11]: significantly suppressed
IL-12/23 p40 production in BMDCs [8, 11]: significantly suppressed
TNF-α production in BMDCs [8, 11]: significantly suppressed

From patent US10842806B2, “Methods for treating ocular inflammatory disorders” (Massachusetts Eye and Ear Infirmary, priority 2011, dated 2020)
